Results as given in ChEMBL document CHEMBL4002572, “Development of CXCR4 modulators by virtual HTS of a novel amide-sulfamide compound library” (Eur J Med Chem, 2017).
Activity calls are given as the source filed them. The calls are words filed in the database; no cut-off is given here.

What was measured:
[1] = target: C-X-C chemokine receptor type 4 (Homo sapiens) (UniProt P61073); test: Displacement of biotinylated-TN14003 from CXCR4 in human MDA-MB-231 cells assessed as reduction in fluorescence preincubated for 10 mins followed by biotinylated-TN14003 addition measured after 30 mins by streptavidin-rhodamine staining based microscopic analysis; format: cell-based
Mus musculus [2] = test: Anti-inflammatory activity in mouse assessed as inhibition of xylene-induced ear edema at 10 mg/kg, ip administered 30 mins post xylene challenge measured after 2 hrs relative to control; format: functional
[3] = target: C-X-C chemokine receptor type 4 (Homo sapiens) (UniProt P61073); test: Inhibition of CXCR4/CXCL12 interaction-mediated chemotaxis in human MDA-MB-231 cells assessed as inhibition of cell invasion at 100 nM after 22 hrs by hematoxylin/eosin dye-based matrigel assay relative to control
[4] = target: C-X-C chemokine receptor type 4 (Homo sapiens) (UniProt P61073); test: Potency index, ratio of AMD3100 EC to compound EC for displacement of biotinylated TN14003 from CXCR4 in human MDA-MB-231 cells; format: cell-based
Mus musculus [5] = test: Anti-inflammatory activity in xylene-induced ear edema mouse model assessed as reduction in ear thickness at 10 mg/kg, ip administered 30 mins post xylene challenge measured after 2 hrs by hematoxylin/eosin dye-based assay; format: functional, organism-based
Mus musculus [6] = test: Anti-inflammatory activity in xylene-induced ear edema mouse model assessed as reduction in edema volume at 10 mg/kg, ip administered 30 mins post xylene challenge measured after 2 hrs by hematoxylin/eosin dye-based assay; format: functional, organism-based
Mus musculus [7] = test: Anti-inflammatory activity in xylene-induced ear edema mouse model assessed as reduction in inflammatory cells at 10 mg/kg, ip administered 30 mins post xylene challenge measured after 2 hrs by hematoxylin/eosin dye-based assay; format: functional, organism-based
Mus musculus [8] = test: Anti-inflammatory activity in Swiss albino mouse assessed as inhibition of xylene-induced ear edema at 30 mg/kg, ip pretreated for 1 hr followed by xylene challenge measured after 30 mins relative to control; format: functional
[9] = target: C-X-C chemokine receptor type 4 (Mus musculus) (UniProt P70658); test: Inhibition of CXCR4 in mouse J774A.1 cells assessed as reduction in Crohn's disease-associated Escherichia coli 131 infection-induced TNF-alpha level at 200 nM relative to control; format: cell-based
[10] = target: C-X-C chemokine receptor type 4 (Homo sapiens) (UniProt P61073); test: Inhibition of CXCR4/CXCL12 (unknown origin) interaction-mediated Akt phosphorylation by western blot analysis
MDA-MB-231 = test: Cytotoxicity against human MDA-MB-231 cells assessed as cell viability at 10 uM measured after 24 hrs by MTT assay; format: cell-based; settings: mda-mb-231, 24 h

Chain of C-X-C chemokine receptor type 4 (Homo sapiens) (P61073 whole entry): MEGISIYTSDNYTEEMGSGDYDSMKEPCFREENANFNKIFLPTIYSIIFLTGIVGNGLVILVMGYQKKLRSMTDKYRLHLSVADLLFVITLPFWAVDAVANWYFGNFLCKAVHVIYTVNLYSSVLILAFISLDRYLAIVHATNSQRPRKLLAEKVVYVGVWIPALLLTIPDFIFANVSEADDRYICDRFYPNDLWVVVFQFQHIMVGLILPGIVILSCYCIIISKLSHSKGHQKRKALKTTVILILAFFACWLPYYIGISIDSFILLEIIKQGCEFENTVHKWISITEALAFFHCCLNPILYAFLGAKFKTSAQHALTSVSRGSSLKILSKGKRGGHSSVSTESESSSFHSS
Chain of C-X-C chemokine receptor type 4 (Mus musculus) (P70658 whole entry): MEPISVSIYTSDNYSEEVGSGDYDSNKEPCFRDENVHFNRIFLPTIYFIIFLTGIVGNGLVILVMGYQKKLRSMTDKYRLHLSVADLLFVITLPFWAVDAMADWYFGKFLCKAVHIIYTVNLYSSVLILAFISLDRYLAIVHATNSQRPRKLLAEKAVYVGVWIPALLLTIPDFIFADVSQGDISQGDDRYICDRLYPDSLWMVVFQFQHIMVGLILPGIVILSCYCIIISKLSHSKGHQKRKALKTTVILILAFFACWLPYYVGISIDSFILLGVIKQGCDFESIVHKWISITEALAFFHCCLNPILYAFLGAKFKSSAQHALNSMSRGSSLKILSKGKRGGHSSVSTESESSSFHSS

Structure (SMILES) | EC [1] [nM] | inhibition in vivo at 10 mg/kg (Mus musculus [2]) [%] | inhibition [3] | further results
O=C(NCc1ccc(CNS(=O)(=O)c2ccc3c(c2)CCO3)cc1)c1scc2c1OCCO2 | 10 | 0 | 68% | –
Cn1nccc1C(=O)NCc1ccc(CNS(=O)(=O)c2ccc3c(c2)CCO3)cc1 | 1000 | 38 | 40% | –
O=C(NCc1ccc(CNS(=O)(=O)c2ccc3c(c2)CCO3)cc1)c1cc2ccccn2n1 | 1 | – | 40% | Ratio [4]: 1000
O=C(NCc1ccc(CNS(=O)(=O)c2ccc(F)cc2F)cc1)c1ncc[nH]1 | > 1000 | – | – | –
Cc1nnsc1C(=O)NCc1ccc(CNS(=O)(=O)c2ccc(F)c(F)c2)cc1 | 10 | 54 | 40% | Activity (Mus musculus [5]): Active; Activity (Mus musculus [6]): Active; Activity (Mus musculus [7]): Active
Cc1cc(C(=O)NCc2ccc(CNS(=O)(=O)c3ccc4c(c3)CCO4)cc2)n(C)n1 | 1000 | 35 | Active | –
O=C(NCc1ccc(CNS(=O)(=O)c2cccc(F)c2)cc1)c1cc2ccccn2n1 | 1000 | – | 40% | –
O=C(NCc1ccc(CNS(=O)(=O)c2ccc(F)c(F)c2)cc1)c1cnc2ccccn12 | > 1000 | – | – | –
O=C(NCc1ccc(CNS(=O)(=O)c2ccc3c(c2)CCO3)cc1)c1cccnc1 | 1000 | 10 | 60% | –
Cc1ccc(-c2cc(C(F)(F)F)nn2-c2ccc(S(N)(=O)=O)cc2)cc1 [CELECOXIB] | – | – | – | inhibition in vivo at 30 mg/kg (Mus musculus [8]): 47%
O=C(NCc1ccc(CNS(=O)(=O)c2ccc3c(c2)CCO3)cc1)c1cccc2c1COC2 | 1000 | – | 40% | –
c1cc(CN2CCCNCCNCCCNCC2)ccc1CN1CCCNCCNCCCNCC1 | – | – | 55% | –
O=C(NCc1ccc(CNS(=O)(=O)c2ccccc2F)cc1)c1cc2ccccn2n1 | 100 | – | 40% | –
O=C(NCc1ccc(CNS(=O)(=O)c2ccc(F)cc2F)cc1)c1cncnc1 | 1 | 56 | 74% | Activity (Mus musculus [5]): Active; Activity (Mus musculus [6]): Active; Ratio [4]: 1000; inhibition [9]: 67%; Activity (Mus musculus [7]): Active; inhibition [10]: Dose-dependent effect; Activity (MDA-MB-231): Non-Toxic
